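Briefly, cells in 96-well plates were exposed to five compound concentrations for 48 h, and endpoints were estimated by linear interpolation. GI50: concentration for 50% inhibition of growth.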 Calls of active or inactive are those of the source. No stated cut-off is given here; in the data, active = GI50 up to about 1.1 µM and inactive = higher.
Assays:
Experiment in all cases: NCI anticancer screen, dose series, 48 h
A498 = system: A498
ACHN = system: ACHN
HCT-116 = system: HCT-116
IGROV-1 = system: IGROV-1
LOX IMVI = system: LOX IMVI
Malme-3M = system: Malme-3M
NCI-H460 = system: NCI-H460
NCI-H522 = system: NCI-H522
RPMI-8226 = system: RPMI-8226
SK-MEL-5 = system: SK-MEL-5
SK-OV-3 = system: SK-OV-3
SNB-75 = system: SNB-75
UACC-62 = system: UACC-62
UO-31 = system: UO-31

| Structure (SMILES) | GI50 (A498) | GI50 (ACHN) | GI50 (HCT-116) | GI50 (IGROV-1) | GI50 (LOX IMVI) | GI50 (Malme-3M) | GI50 (NCI-H460) | GI50 (NCI-H522) | GI50 (RPMI-8226) | GI50 (SK-MEL-5) | GI50 (SK-OV-3) | GI50 (SNB-75) | GI50 (UACC-62) | GI50 (UO-31) |
| --- | --- | --- | --- | --- | --- | --- | --- | --- | --- | --- | --- | --- | --- | --- |
| NC(=O)N1N=C2c3ccccc3OC[C@H]2[C@@H]1c1ccccc1 | 16.4 µM (inactive) | 5.68 µM (inactive) | 5.6 µM (inactive) | 18.8 µM (inactive) | 26.1 µM (inactive) | 21.1 µM (inactive) | 13.2 µM (inactive) | 3.3 µM (inactive) | 8.89 µM (inactive) | 1.91 µM (inactive) | 8.95 µM (inactive) | 16.6 µM (inactive) | 3.78 µM (inactive) | 42.4 µM (inactive) |
| O=[N+]([O-])c1nccn1CC(O)c1ccc(F)cc1 (centres undefined) | > 100 µM (inactive) | > 100 µM (inactive) | – | > 100 µM (inactive) | > 100 µM (inactive) | > 100 µM (inactive) | > 100 µM (inactive) | > 100 µM (inactive) | > 100 µM (inactive) | > 100 µM (inactive) | > 100 µM (inactive) | > 100 µM (inactive) | > 100 µM (inactive) | > 100 µM (inactive) |
| CCc1cccc(C)c1NC(=O)C(=O)Cc1nc2ccccc2o1 | > 100 µM (inactive) | > 100 µM (inactive) | > 100 µM (inactive) | > 100 µM (inactive) | > 100 µM (inactive) | > 100 µM (inactive) | > 100 µM (inactive) | > 100 µM (inactive) | > 100 µM (inactive) | – | > 100 µM (inactive) | – | > 100 µM (inactive) | > 100 µM (inactive) |
| COc1ccc2c(c1)CCc1c(-c3n[nH]c4c3CCc3cc(OC)ccc3-4)n[nH]c1-2 | 27.6 µM (inactive) | 29.9 µM (inactive) | 34.1 µM (inactive) | 48.6 µM (inactive) | 17.9 µM (inactive) | 37.9 µM (inactive) | 39 µM (inactive) | 20.2 µM (inactive) | – | 30.8 µM (inactive) | 6.25 µM (inactive) | 23.3 µM (inactive) | 23.5 µM (inactive) | 40.5 µM (inactive) |
| O=C(Cc1ccccc1)NN1C(=O)C(Cl)C1c1cc(Br)cc(Br)c1O (centres undefined) | – | 6.35 µM (inactive) | 3.21 µM (inactive) | 13.1 µM (inactive) | 9.95 µM (inactive) | 17.7 µM (inactive) | 3.87 µM (inactive) | 3.8 µM (inactive) | 6.81 µM (inactive) | 13.6 µM (inactive) | 15.1 µM (inactive) | 16.2 µM (inactive) | 10.3 µM (inactive) | 4.11 µM (inactive) |
| COc1cc2c(c(OC)c1OC)-c1ccc(SC)c(=O)cc1[C@@H](NC(=O)c1cccc([N+](=O)[O-])c1)CC2 | 0.0198 µM (active) | 0.0489 µM (active) | 0.0174 µM (active) | 0.0288 µM (active) | – | 0.0161 µM (active) | – | < 0.01 µM (active) | 0.0208 µM (active) | 0.0179 µM (active) | 0.021 µM (active) | 0.0264 µM (active) | 0.0292 µM (active) | 0.0516 µM (active) |
| C/C(CC(=O)Nc1cccc(Cl)c1C)=N\NC(=O)c1ccncc1 | – | – | > 100 µM (inactive) | > 100 µM (inactive) | > 100 µM (inactive) | > 100 µM (inactive) | > 100 µM (inactive) | 21.4 µM (inactive) | > 100 µM (inactive) | > 100 µM (inactive) | > 100 µM (inactive) | > 100 µM (inactive) | > 100 µM (inactive) | > 100 µM (inactive) |
| CSc1nc(-c2ccccc2)c2c(n1)-c1ccccc1CC2 | > 100 µM (inactive) | – | > 100 µM (inactive) | > 100 µM (inactive) | > 100 µM (inactive) | > 100 µM (inactive) | > 100 µM (inactive) | > 100 µM (inactive) | > 100 µM (inactive) | > 100 µM (inactive) | > 100 µM (inactive) | > 100 µM (inactive) | > 100 µM (inactive) | > 100 µM (inactive) |
| CC1SC2=NC3=C(c4ccccc4C3=O)C(c3ccc(Br)cc3)N2C1=O (centres undefined) | > 100 µM (inactive) | > 100 µM (inactive) | – | > 100 µM (inactive) | – | 44.3 µM (inactive) | > 100 µM (inactive) | 19.3 µM (inactive) | 31.6 µM (inactive) | 41.2 µM (inactive) | > 100 µM (inactive) | 24.5 µM (inactive) | 30.6 µM (inactive) | 8.47 µM (inactive) |
| OC1/C(=C/c2ccccc2)CNC/C1=C\c1ccccc1 (centres undefined) | > 100 µM (inactive) | > 100 µM (inactive) | > 100 µM (inactive) | > 100 µM (inactive) | > 100 µM (inactive) | > 100 µM (inactive) | > 100 µM (inactive) | > 100 µM (inactive) | > 100 µM (inactive) | > 100 µM (inactive) | > 100 µM (inactive) | 75.7 µM (inactive) | > 100 µM (inactive) | 87.5 µM (inactive) |
| CCN(CC)CCNc1ccc2nnn3c4ccc(OC)cc4c(=O)c1c23 | 13.3 µM (inactive) | 4.71 µM (inactive) | 2.16 µM (inactive) | 7.55 µM (inactive) | 2.22 µM (inactive) | 10.4 µM (inactive) | 3.17 µM (inactive) | 6.7 µM (inactive) | 2.82 µM (inactive) | 12.5 µM (inactive) | 10.2 µM (inactive) | 7.82 µM (inactive) | 12.9 µM (inactive) | 10 µM (inactive) |
| CC(=O)Nc1ccccc1Sc1ccccc1 | > 100 µM (inactive) | > 100 µM (inactive) | > 100 µM (inactive) | > 100 µM (inactive) | > 100 µM (inactive) | > 100 µM (inactive) | > 100 µM (inactive) | 36.6 µM (inactive) | > 100 µM (inactive) | > 100 µM (inactive) | > 100 µM (inactive) | 39.3 µM (inactive) | > 100 µM (inactive) | 28.6 µM (inactive) |
| CC(C)C(=O)Nc1nc2c(ncn2C2OC(CO)C(O)C2O)c(=O)[nH]1 (centres undefined) | > 100 µM (inactive) | > 100 µM (inactive) | > 100 µM (inactive) | > 100 µM (inactive) | > 100 µM (inactive) | > 100 µM (inactive) | > 100 µM (inactive) | > 100 µM (inactive) | > 100 µM (inactive) | > 100 µM (inactive) | > 100 µM (inactive) | > 100 µM (inactive) | > 100 µM (inactive) | > 100 µM (inactive) |
| O=C1O[C@@H](c2ccccc2)C[C@H]1CN1CCOCC1 | > 100 µM (inactive) | > 100 µM (inactive) | – | > 100 µM (inactive) | > 100 µM (inactive) | > 100 µM (inactive) | > 100 µM (inactive) | > 100 µM (inactive) | 14.6 µM (inactive) | > 100 µM (inactive) | 68.1 µM (inactive) | 51.9 µM (inactive) | > 100 µM (inactive) | > 100 µM (inactive) |
| CC(C)(O)[C@@H]1CCC(C)([C@H]2[C@@H](O)CC3(C)C4CC(OC5OC(CO)C(O)C(O)C5O)C5C(C)(C)[C@@H](OC6OCC(O)C(O)C6O)CC[C@@]56C[C@@]46CC[C@]23C)O1 (some centres undefined) | – | > 100 µM (inactive) | > 100 µM (inactive) | > 100 µM (inactive) | > 100 µM (inactive) | > 100 µM (inactive) | > 100 µM (inactive) | > 100 µM (inactive) | > 100 µM (inactive) | > 100 µM (inactive) | > 100 µM (inactive) | > 100 µM (inactive) | > 100 µM (inactive) | > 100 µM (inactive) |
| C#CCC(N)(CO)C(=O)O (centres undefined) | > 100 µM (inactive) | > 100 µM (inactive) | > 100 µM (inactive) | > 100 µM (inactive) | > 100 µM (inactive) | > 100 µM (inactive) | > 100 µM (inactive) | > 100 µM (inactive) | > 100 µM (inactive) | > 100 µM (inactive) | > 100 µM (inactive) | 82.6 µM (inactive) | > 100 µM (inactive) | > 100 µM (inactive) |
| O=Cc1ccc2c(c1-c1c(C=O)ccc3c1OCO3)OCO2 | > 100 µM (inactive) | > 100 µM (inactive) | > 100 µM (inactive) | > 100 µM (inactive) | – | > 100 µM (inactive) | > 100 µM (inactive) | > 100 µM (inactive) | 96.6 µM (inactive) | > 100 µM (inactive) | > 100 µM (inactive) | > 100 µM (inactive) | > 100 µM (inactive) | > 100 µM (inactive) |
| C#CC1(O)c2ccccc2C(=O)c2ccccc21 | 10.9 µM (inactive) | > 100 µM (inactive) | > 100 µM (inactive) | 11.8 µM (inactive) | > 100 µM (inactive) | > 100 µM (inactive) | > 100 µM (inactive) | > 100 µM (inactive) | – | – | – | – | – | – |
| COCC(OC)C(CC=C(C#N)C#N)OC (centres undefined) | > 100 µM (inactive) | > 100 µM (inactive) | > 100 µM (inactive) | > 100 µM (inactive) | > 100 µM (inactive) | > 100 µM (inactive) | – | > 100 µM (inactive) | > 100 µM (inactive) | > 100 µM (inactive) | > 100 µM (inactive) | – | > 100 µM (inactive) | > 100 µM (inactive) |
| Cc1ccc(C(=O)C(C2=Nc3nnc(N)n3C2=O)C2=Nc3nnc(N)n3C2=O)cc1 | > 100 µM (inactive) | > 100 µM (inactive) | – | > 100 µM (inactive) | > 100 µM (inactive) | > 100 µM (inactive) | > 100 µM (inactive) | > 100 µM (inactive) | > 100 µM (inactive) | > 100 µM (inactive) | > 100 µM (inactive) | > 100 µM (inactive) | > 100 µM (inactive) | > 100 µM (inactive) |
| CCOC(=O)C1(C(=O)OCC)OC(=O)NC2=C1CCCC2 | > 100 µM (inactive) | > 100 µM (inactive) | > 100 µM (inactive) | > 100 µM (inactive) | > 100 µM (inactive) | > 100 µM (inactive) | > 100 µM (inactive) | > 100 µM (inactive) | > 100 µM (inactive) | > 100 µM (inactive) | > 100 µM (inactive) | > 100 µM (inactive) | – | > 100 µM (inactive) |

From ChEMBL document CHEMBL1201862, “PubChem BioAssay data set” (2004)
